Data: US6106866A, “In vivo agents comprising cationic drugs, peptides and metal chelators with acidic saccharides and glycosaminoglycans, giving improved site-selective localization, uptake mechanism, sensitivity and kinetic-spatial profiles, including tumor sites” (Access Pharmaceuticals, Inc., priority 1995, dated 2000)
Converted amounts (≈) assume the structure as drawn. “And” between values parts separate entries of the source, which are not always exact repeats. Identical values can stand only once. “Also recorded” adds a separate entry of the source. No end group written: not given here. *: point of attachment. For = O=C*

Experiments:
[1] = Binding of complexes to heparin or sucrose octasulfate (dialysis, UV-Visible titration, solubilization)
Method: UV-Visible spectrophotometric titration indicates maximum binding occurs at a molar ratio of 18:1 (iron-porphine:heparin).
(a) To this resulting aqueous dispersion of complex is added beef lung heparin, to give final complex-to-heparin ratios of between 95:5 and 5:95 (by weight). […] This apparent solubilization is indicative of paired-ion binding between triethylenetetraamine-iron and heparin.
(b) To the aqueous dispersion of triethylenetetraamine-iron complex is added sucrose octasulfate (SOS), to give final complex-to-SOS ratios of between 95:5 and 5:95 (by weight).

[2] = T1 relaxivity (R1), IBM PC20 Minispectrometer / ICP-AA metal measurement; assay type: physicochemical
Method: Batch quantities of the Fe(III) chelate of deferoxamine are prepared as follows. Deferoxamine mesylate (methanesulfonate) (Ciba-Geigy Limited, Basel, Switzerland), 390 g, is dissolved in pharmaceutical-grade water. Alternatively, the chloride salt of deferoxamine may be used. […] This final batch volume is adjusted as desired, typically to a final volume of 2600 mL. Any remaining trace amounts of unreacted Fe(O)OH are removed and the solution also made aseptic, by passing the supernatant through a 0.22 μm Millipore GV-type filter in a Class 100 laminar flow hood. The resulting batch is stored at 4° C. in an autoclaved, sealed glass container until further use (see Examples below). The final concentration of ferrioxamine (DFe) is determined once again by UV-Visible absorbance spectrophotometry at 430 nm.
The pH is adjusted to 7.0 by addition of 1.0 N NaOH. […] In the case of gadolinium oxide, neutralization with 1.0 N NaOH is not needed. […] This precipitate is rewashed with ethanol and centrifuged (as above), washed with acetone plus centrifuged, and the collected precipitate dried over a stream of dry nitrogen.

[3] = test system: syngeneic breast adenocarcinoma; assay: MRI contrast enhancement of breast adenocarcinoma inoculated in liver (and metastases); assay type: in vivo, Fisher 344 female rats; conditions: 7 MPI, 0.155 mmol/Kg i.v.
Source text: FIG. 2A, FIG. 2B, FIG. 3A, FIG. 3B, FIG. 4A, FIG. 4B, FIG. 4C, FIG. 4D and FIG. 8A, FIG. 8B and FIG. 8C show T1-weighted MRI images (TR/TE=800/45, 550/23 and 600/45) performed at 1.0 and 1.5 Tesla, before (Pre) and after (Post) intravenous (i.v.) injection of Ferrioxamine:Dermatan Sulfate Selective Paramagnetic Contrast Agent, prepared as in Examples 2 and 5, and injected i.v. at a Ferrioxamine dose of 0.155 mmol/Kg into Fisher 344 female rats, with syngeneic breast adenocarcinoma inoculated previously into the liver, such that tumor diameters at the time of imaging are between 1.0 cm and 2.5 cm.
(§1) Tumors are not conspicuous on standard T1-weighted Precontrast images. […] The sustained intervals shown in FIG. 8A, FIG. 8B and FIG. 8C are much longer than those typically reported for Gd:DTPA dimeglumine contrast enhancement at body organ sites.
T1-weighted MRI images (TR-TE=800/45) are performed at 1.0 Tesla, before (Pre) and after (Post) intravenous (i.v.) injection of Gd:MPD-DTPA:DS (DS=435 Type, Opocrin) at a dose of 0.155 mmol/kg into Fisher 344 female rats with syngeneic breast adenocarcinomas inoculated by trocar into the livers, as in Example 18 (above). A T2 scout image (TR/TE=2100/85) is performed in advance of the T1 image contrast series, in order to identify the approximate location(s) of tumor nodule(s) (FIG. 18A). […]

acute myocardial infarct = assay: MRI contrast enhancement of acute myocardial infarcts; assay type: in vivo, German Shepherd dogs; conditions: 0.155 mmol/Kg
Source text: FIG. 11A, FIG. 11B, FIG. 11C and FIG. 11D show T1-weighted MRI ECG-gated cardiovascular images performed at 0.5 Tesla, before (Pre) and after (Post) rapid intravenous (i.v.) infusion of Ferrioxamine:Dermatan Sulfate Selective Paramagnetic Contrast Agent prepared as in Examples 2 and 5, and injected i.v. at an Iron(III) dose of 0.155 mmol/Kg into German Shepherd dogs with acute, 90-min myocardial infarcts (ligature of proximal left anterior descending coronary artery) followed by reperfusion for ca. 90 minutes prior to contrast agent infusion.
In these studies, infarct sizes and positions are documented by double dye infusion performed immediately after MRI imaging.

[4] = test system: syngeneic breast adenocarcinoma; assay: Special histologic iron stain of breast adenocarcinoma; assay type: in vivo, Fisher 344 female rats; conditions: central tumor, 7-10 MPI
Source text: FIG. 6. Special histologic stain (heated ferroferricyanide reaction) of formalin-fixed section of syngeneic breast adenocarcinoma excised from liver inoculation site of Fisher 344 female rats: […] Sulfate Selective MRI Contrast Agent.
as §1

[5] = comparison value; cited from earlier work
[6] = test system: AT-1 prostate adenocarcinoma; assay: MRI contrast enhancement of AT-1 prostate adenocarcinoma; assay type: in vivo, Copenhagen rats
Method: FIG. 14A, FIG. 14B, FIG. 14C and FIG. 14D show MRI 4.7 Tesla, T1-weighted images of Copenhagen rats with the AT-1 prostate tumor model (as in FIG. 13A, FIG. 13B, FIG. 13C and FIG. 13D), but rats are injected i.v. with Ferrioxamine Selective Contrast Agent, wherein the Active is non-covalently bound to Oversulfated Dermatan Sulfate, the Agent lyophilized and reconstituted with water just prior to administration at a concentration of 0.332 mmol/mL Fe(III) and administered at the usual dose of 0.155 mmol of Fe(III) per Kg.
FIG. 15A, FIG. 15B, FIG. 15C and FIG. 15D show MRI 4.7 Tesla, T1-weighted images of Copenhagen rats with the AT-1 prostate tumor model (as in FIG. 13A, FIG. 13B, FIG. 13C and FIG. 13D), but rats are injected i.v. with Ferrioxamine Selective Contrast Agent, wherein the Active is non-covalently bound to Oversulfated Chondroitin Sulfate, the Agent lyophilized and reconstituted with water just prior to administration at a concentration of 0.332 mmol/mL Fe(III) and administered at the usual dose of 0.155 mmol of Fe(III) per Kg.
FIG. 16A, FIG. 16B, FIG. 16C and FIG. 16D show MRI 4.7 Tesla, T1-weighted images of Copenhagen rats with the AT-1 prostate tumor model (as in FIG. 13A, FIG. 13B, FIG. 13C and FIG. 13D), but rats are injected i.v. with Ferrioxamine Selective Contrast Agent, wherein the Active is non-covalently bound to a non-anticoagulant GAG, Heparan Sulfate, the Agent lyophilized and reconstituted with water just prior to administration at a concentration of 0.332 mmol/mL Fe(III) and administered at the usual dose of 0.155 mmol of Fe(III) per Kg.
FIG. 19A, FIG. 19B, FIG. 19C, FIG. 19D and FIG. 19E show T1-weighted images at 4.7 Tesla (TR/TE=250/8) of Copenhagen rats with syngeneic AT-1 prostate adenocarcinomas inoculated into previously prepared skin pouches [Hahn et al. (1993)], and imaged at diameters of 1.0-2.5 cm.
Based on low anticoagulant activity, safety and projected site-localizationpotential, certain alternative glycosaminoglycan carriers and certain alternative physical forms of the resulting Selective MRI Contrast Agents are compared for their relative in vivo potencies of carrier-mediated tumor localization of bound Ferrioxamine. Because of its high spatial resolution and capacity to detect subtle quantitative differences in agent localization, the AT-1 prostate tumor model of Example 19 is used.

[7] = test system: syngeneic breast adenocarcinoma; conditions: rat, in vivo, iv; cited from earlier work
[8] = Gd(III) when chelated by DTPA; cited from earlier work
[9] = Binding of active to dermatan sulfate carrier (dialysis retention, 500 MW cutoff); conditions: for paired-ion binding of peptide to dermatan sulfate: ca. 60:40 (active to dermatan sulfate)
Method: (§2) Multiple batches of Ferrioxamine:Dermatan Sulfate Agent have been prepared.
Vincristine (Sigma Chemical Co., St. Louis) is dissolved in water and mixed with dermatan sulfate at ratios of between 90:10 and 30:70 (w/w) drug to dermatan sulfate.
Amikacin, gentamicin and tobramycin (all obtained from Sigma Chemical Co., St. Louis) are dissolved in water and mixed with either dermatan sulfate (435 Type) or beef lung heparin (Hepar-Kabi-Pharmacia) at ratios of between 90:10 and 30:70 (w/w) drug to glycosaminoglycan.

physchem = conditions: water
Source text: as §2

antithrombin III = conditions: cited from earlier work

Molecule: 5,10,15,20-tetrakis(1-methyl-4-pyridyl)-21H-23H-porphine [iron-porphine]
- Binding of iron-porphine to heparin [1]: ~100%
- dialysis of iron-porphine alone [1]: nearly completely dialyzed
- molar ratio at maximum binding (iron-porphine:heparin) [1]: 18:1

Molecule: CC(=O)N([O-])CCCCCNC(=O)CCC(=O)N([O-])CCCCCNC(=O)CCC(=O)N([O-])CCCCCN.[Fe+3] [Ferrioxamine]
- R1 (T1 relaxivity) [2]: 1.5-1.8 [mmol.sec]^-1 and 1.6-1.8 [mmol.sec]^-1 and 1.6 (mmol.sec)^-1
- MRI contrast enhancement of breast tumor in liver [3]: only very slight or nonexistent
- MRI enhancement of infarct, active without carrier (acute myocardial infarct): no detectible enhancement
- MRI enhancement of infarct, active without carrier (acute myocardial infarct; listed as Ferrioxamine Agent Alone): no detectable enhancement
- staining positivity for iron [4]: complete absence of staining positivity

Molecule: CNC[C@H](O)[C@@H](O)[C@H](O)[C@H](O)CO.CNC[C@H](O)[C@@H](O)[C@H](O)[C@H](O)CO.O=C([O-])CN(CCN(CC(=O)[O-])CC(=O)O)CCN(CC(=O)[O-])CC(=O)O.[Gd+3] [Gd:DTPA dimeglumine]
- LD50 [5]: 4.0 mmol/kg
- MRI contrast enhancement of AT-1 tumor ([6]; 7 MPI): the outer rim is not well delineated
- MRI contrast enhancement of AT-1 tumor ([6]; 20 MPI): Marked early contrast fading occurs overall in the tumor
- MRI contrast enhancement of AT-1 tumor ([6]; 40 MPI): enhancement is nearly reverted to background levels; also recorded: enhancement reverts to essentially background levels
- MRI contrast enhancement of AT-1 tumor ([6]; 60 MPI): no residual contrast, except for central cystic regions

Molecule: O=C([O-])CN(CCN(CC(=O)[O-])CC(=O)O)CCN(CC(=O)[O-])CC(=O)O.[Gd+3] [Gd:DTPA]
- t1/2 at the site [7]: 12 to 20 min
- in vitro R1 [8]: 4.0-4.3 [mmol.sec]^-1

Molecule: CC[C@]1(O)C[C@H]2CN(CCc3c([nH]c4ccccc34)[C@@](C(=O)OC)(c3cc4c(cc3OC)N(C=O)[C@H]3[C@@](O)(C(=O)OC)[C@H](OC(C)=O)[C@]5(CC)C=CCN6CC[C@]43[C@@H]65)C2)C1 [Vincristine]
- retention inside 500 MW cutoff dialysis bag [9]: not the drug alone

Molecule: CC(=O)N(O)CCCCCNC(=O)CCC(=O)N(O)CCCCCNC(=O)CCC(=O)N(O)CCCCCN [deferoxamine]
- solubility (physchem): 320 mg/mL (≈ 571 mM)

Molecule: N-formyl-met-leu-phe-lys (For-MLFK) [basic white-cell chemoattractant peptide, formulated with dermatan sulfate]
- paired-ion binding of peptide to dermatan sulfate [9]: Strong paired-ion binding
- fluorescence on binding to dermatan sulfate ([9]; emission 518 nm, excitation 257 nm): fluorescence enhancement

Molecule: arg-pro-pro-gly-phe-ser-pro-phe-arg (RPPGFSPFR; formulated with dermatan sulfate) [arginine bradykinin, basic peptide, formulated with dermatan sulfate]
- paired-ion binding of peptide to dermatan sulfate [9]: Strong paired-ion binding

Molecule: dermatan sulfate
- inhibition of antithrombin III (antithrombin III): neither dermatan sulfate nor its 8-12 unit fragment inhibits
